The values that follow are results of earlier work, collected in paper PMC12304285 (British Journal of Cancer, 2025).

The test system of the series is patients with advanced solid tumours. The arrangement: method as in PMID 33230210. To be noted: single-agent trial; cited from earlier work.

`COc1ccc([C@@H](O)c2cc(-c3ncnc4cc(N5CCOCC5)ccc34)c(F)cc2Cl)nn1` [peposertib]: the “anaemia or myelosuppressive TEAEs” value is recorded as “Neither anaemia nor myelosuppressive TEAEs were reported”.
